Assay results from PMC6385123, “Design, Synthesis, Anticancer Evaluation and Molecular Modeling of Novel Estrogen Derivatives” (Molecules, 2019).

Legend:
EGFR = EGFR (Homo sapiens, UniProt P00533); assay: EGFR kinase inhibition assay; format: biochemical; conditions: 8 μM ATP, poly(Glu,Tyr)4:1 substrate; read-out: IC50 (Mean ± SEM) EGFR
Protocol: (§1) The EGFR and VEGFR-2 kinase activities were assayed as previously described. The assay was performed in 96-well plates pre-coated with 20 μg mL^−1 poly (Glu, Tyr)4:1 (Sigma-Aldrich Chemie GmbH, Taufkirchen, Germany) as a substrate. In each well, 85 μL of an 8 μM ATP solution and 10 μL of the compound were added at varying concentrations. Experiments were repeated three times. Reactions started with 5 μL of different kinases and incubation for 1 h at 37 °C. Plates were 3X-washed with PBS/0.1% Tween 20. Accordingly, 100 μL of anti-phosphotyrosine (PY99; 1:500 dilutions) antibody was added, and plates were incubated for another hour at room temperature. Plates were then 3X-washed, and addition of goat anti-mouse IgG horseradish peroxidase (100 μL; 1:2000 dilution) diluted in T-PBS containing 5 mg mL^−1 BSA followed. Plates were further incubated at room temperature for another hour, and then 3X-washed. Finally, 100 μL (developing solution, 0.03% H2O2, 2 mg mL^−1 o-phenylenediamine/citrate buffer, 0.1 M, pH 5.5) was added and incubation continued until color development. The reaction was stopped by 100 μL of 2M H2SO4, and the absorption was measured at 492 nm using a multiwell spectrophotometer (VERSAmax™). The inhibition rate (%) was calculated using the equation:Inhibition rate (%) = [1 − (A492/A492Control)] × 100%(1)

MCF-7 xenografts = assay: In vivo breast cancer mouse xenograft model; parameters: species or system nude mice
Protocol: The breast cancer xenograft model protocol was approved by the Institutional Animal Use and Care Committee of the University of Alabama at Birmingham (50-01-05-08B). Female athymic pathogen-free nude mice (nu/nu, 4–6 weeks) were used. Firstly, MCF-7 xenografts were initiated by implanting pellets slowly releasing estrogen for two months (1.7mg 17β-estradiol/pellet) subcutaneously in the female nude mice. After 24 h, confluent MCF-7 cells were harvested, washed two times with serum-free medium, re-suspended and injected subcutaneously (s.c.) (5 × 10^6 cells, total volume 0.2 mL) into the left inguinal area of the mice. Caliper measurement was used to measure tumor growth in two perpendicular diameters of the implant after 48 h, and its volume was determined. Mice grafted with MCF-7 were divided into different groups (7–10 mice/group). Untreated mice received the solvent only. Treated groups received different prepared derivatives as previously described.

VEGFR-2 = VEGFR-2 (Homo sapiens, UniProt P35968); assay: VEGFR-2 kinase inhibition assay; format: biochemical; conditions: 8 μM ATP, poly(Glu,Tyr)4:1 substrate; read-out: IC50 (Mean ± SEM) VEGFR-2
Protocol: as §1

p53 ubiquitination = assay: In vivo ubiquitination of p53 (transfected cells); format: cell-based
Protocol: In vivo ubiquitination of p53 was assayed according to [38] Cells were grown for 24 h (50% confluency) before transfection of 1 µg p53, 4 µg MDM2 and 1 µg HIS-ubiquitin with Gene Juice reagent. Grown for another 20 h, cells were exposed to prepared derivatives or controls for 6 h and MG132 for 4 h, then washed and collected in PBS, where 5% of the solution was kept as an input. The remaining pelleted cells (95% after centrifugation) were lysed in 700 µL of ubiquitin buffer A (6 M guanidinium HCl, 300 mM NaCl, 50 mM phosphate pH 8.0, 100 µg/mL N-ethylmaleimide), and sonicated for 5 min at 20% amplitude. Lysates were incubated overnight with Invitrogen Dynabeads His-Tag matrix and washed once with ubiquitin buffers A, B, C and phosphate buffered saline (ubiquitin buffer B: Mix ubiquitin buffer A and ubiquitin buffer C 1:1; ubiquitin buffer C: 300 mM NaCl, 50 mM phosphate pH 8.0, 100 µg/mL N-ethylmaleimide). The washed lysates were resolved by 8% sodium dodecyl sulfate–polyacrylamide gel electrophoresis, followed by immunoblotting with a p53 (DO-1) antibody.

[1] = biological target: T1, p53 ubiquitination (GST-tagged HDM2) (Homo sapiens, UniProt Q00987); assay: In vitro p53 ubiquitination assay; format: biochemical
T1 construct: GS4b-MDM2 RING beads were prepared as above and were used in place of the full-length MDM2; made in house; host or cells: Escherichia coli BL21
Protocol: Different prepared derivatives were evaluated for their inhibitory potential against p53 ubiquitination. The method is based on incubating different compounds with GST-tagged HDM2, immobilized on glutathione-Sepharose, p53, ubiquitin, E1 and E2 (UbcH5B) ligases. The buffer contained ATP as detailed by Gomha and Abdelaziz. The reaction products were then resolved by SDSPAGE and p53 ubiquitination and were quantified by Western blotting using an anti-p53 antibody.
Briefly, rGSH-S-transferase-tagged MDM2 (GST-MDM2) was expressed in Escherichia coli BL21 cells using 1 mM isopropyl-thio-b-D-galactoside for 3 h. The enzyme was then purified on glutathione-sepharose beads (Amersham). Beads were washed with Tris (pH 7.5). The reaction contained fluorescent ubiquitin (5 µg; Invitrogen), 50 ng mammalian E1 (Enzo), 200 ng human rUbcH5B E2 (Enzo), 200 ng His-p53 (Enzo) and buffer [50 mM Tris pH 8,2 mM dithiothreitol, 5 mM MgCl2, 2 mM adenosine triphosphate (ATP)]. The MPD-compound or control mixture was dose-titrated onto GS4b-MDM2 beads. Incubation at 37 °C was followed by shaking (1200 rpm, 1 h). The reaction was terminated with 3× sodium dodecyl sulfate sample buffer. Finally, unbound fluorescent ubiquitin was drained and the total fluorescent ubiquitin signal was measured using a plate reader (Safire).
The procedure was performed similar to the aforementioned protocol except that 5 µg unlabeled ubiquitin (Enzo) was used. Following incubation, resolving of reaction products was performed using sodium dodecyl sulfate PGE. Analysis was done by western blotting using anti-p53 DO-1. For the MDM2 RING auto-ubiquitination assay, GS4b-MDM2 RING beads were prepared as above and were used in place of the full-length MDM2.

MCF-10A cells = assay: In vitro cytotoxicity against normal non-tumorigenic cells, MTT assay; format: cell-based; conditions: Homo sapiens, normal non-tumorigenic MCF-10A cells, read-out: IC50 (Mean ± SEM) MCF-10A
Protocol: (§2) MCF-7 (human breast cancer) cells, obtained from Sigma-Aldrich Chemie GmbH, Taufkirchen, Germany, were propagated in RPMI-1640 supplemented with 10% heat inactivated FBS, 2 mM L-glutamine, and 1% standard antibiotic solution. Cells were incubated in a 5% CO2 humidified incubator at 37 °C and passaged bi-weekly. The in vitro anti-proliferative activity of the newly synthesized derivatives was assayed using standard MTT technique. Results were expressed as IC50. Experiments were repeated at least in triplicate, to obtain good reproducibility between replicate wells with standard errors below 10%. Furthermore, the cytotoxic effects of the prepared derivatives were evaluated against normal nonmalignant cells, non-tumorigenic MCF-10A, in order to find out if the synthesized derivatives have toxicity against normal cells. Additionally, results were compared with reference compounds (cisplatin and milaplatin) as positive controls.

MCF-7 cells = assay: In vitro cytotoxic activity, MTT assay, MCF-7; format: cell-based, human
Protocol: as §2

T1 sequence (Q00987 whole entry): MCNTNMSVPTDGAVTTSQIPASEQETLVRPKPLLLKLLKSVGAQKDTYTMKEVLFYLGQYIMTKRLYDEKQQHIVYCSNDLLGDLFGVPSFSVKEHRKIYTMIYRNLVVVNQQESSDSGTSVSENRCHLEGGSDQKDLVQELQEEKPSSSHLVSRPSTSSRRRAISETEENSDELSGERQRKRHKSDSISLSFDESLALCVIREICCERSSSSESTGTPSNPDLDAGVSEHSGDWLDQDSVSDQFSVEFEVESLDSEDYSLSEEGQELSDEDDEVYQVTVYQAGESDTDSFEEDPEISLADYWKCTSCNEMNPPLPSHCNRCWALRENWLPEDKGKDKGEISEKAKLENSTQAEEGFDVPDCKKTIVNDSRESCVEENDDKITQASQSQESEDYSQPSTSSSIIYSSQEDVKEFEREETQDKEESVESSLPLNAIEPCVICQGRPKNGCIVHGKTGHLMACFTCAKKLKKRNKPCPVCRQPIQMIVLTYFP
Chain of VEGFR-2 (P35968 20-1356): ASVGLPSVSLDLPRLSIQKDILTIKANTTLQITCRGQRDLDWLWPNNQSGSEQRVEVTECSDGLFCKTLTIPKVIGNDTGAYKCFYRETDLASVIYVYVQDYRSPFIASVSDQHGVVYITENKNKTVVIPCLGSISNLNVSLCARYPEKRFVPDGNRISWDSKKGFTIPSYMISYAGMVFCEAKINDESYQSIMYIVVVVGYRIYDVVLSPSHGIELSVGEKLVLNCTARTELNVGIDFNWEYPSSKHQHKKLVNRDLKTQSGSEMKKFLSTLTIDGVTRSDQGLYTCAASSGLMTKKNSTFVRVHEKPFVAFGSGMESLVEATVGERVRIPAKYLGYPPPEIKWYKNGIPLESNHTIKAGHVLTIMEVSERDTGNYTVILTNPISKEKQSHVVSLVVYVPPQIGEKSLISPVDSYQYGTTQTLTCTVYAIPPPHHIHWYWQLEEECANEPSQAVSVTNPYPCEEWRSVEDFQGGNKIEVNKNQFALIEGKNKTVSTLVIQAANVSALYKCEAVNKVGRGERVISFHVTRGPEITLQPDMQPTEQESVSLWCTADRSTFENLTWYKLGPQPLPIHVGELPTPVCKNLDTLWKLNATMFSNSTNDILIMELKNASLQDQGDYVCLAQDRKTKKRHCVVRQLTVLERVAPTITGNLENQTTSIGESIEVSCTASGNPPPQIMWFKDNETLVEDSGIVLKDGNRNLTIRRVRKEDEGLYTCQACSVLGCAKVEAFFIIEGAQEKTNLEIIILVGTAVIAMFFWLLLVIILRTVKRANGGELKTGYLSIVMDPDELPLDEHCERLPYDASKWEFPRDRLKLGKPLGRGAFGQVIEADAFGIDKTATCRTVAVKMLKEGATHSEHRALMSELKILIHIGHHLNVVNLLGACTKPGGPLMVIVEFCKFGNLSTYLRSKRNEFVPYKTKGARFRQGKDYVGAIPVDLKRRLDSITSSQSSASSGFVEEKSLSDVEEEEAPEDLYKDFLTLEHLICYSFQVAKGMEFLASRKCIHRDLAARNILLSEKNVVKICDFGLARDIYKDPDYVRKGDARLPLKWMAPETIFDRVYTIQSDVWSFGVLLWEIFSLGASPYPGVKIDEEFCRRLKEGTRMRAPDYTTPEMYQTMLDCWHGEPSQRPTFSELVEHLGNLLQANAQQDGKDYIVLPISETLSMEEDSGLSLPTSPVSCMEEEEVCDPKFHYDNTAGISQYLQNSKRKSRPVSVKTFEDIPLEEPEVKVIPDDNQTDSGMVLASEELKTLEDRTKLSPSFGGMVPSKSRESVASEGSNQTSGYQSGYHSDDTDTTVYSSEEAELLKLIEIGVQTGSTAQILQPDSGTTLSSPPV
Chain of EGFR (P00533 25-1210): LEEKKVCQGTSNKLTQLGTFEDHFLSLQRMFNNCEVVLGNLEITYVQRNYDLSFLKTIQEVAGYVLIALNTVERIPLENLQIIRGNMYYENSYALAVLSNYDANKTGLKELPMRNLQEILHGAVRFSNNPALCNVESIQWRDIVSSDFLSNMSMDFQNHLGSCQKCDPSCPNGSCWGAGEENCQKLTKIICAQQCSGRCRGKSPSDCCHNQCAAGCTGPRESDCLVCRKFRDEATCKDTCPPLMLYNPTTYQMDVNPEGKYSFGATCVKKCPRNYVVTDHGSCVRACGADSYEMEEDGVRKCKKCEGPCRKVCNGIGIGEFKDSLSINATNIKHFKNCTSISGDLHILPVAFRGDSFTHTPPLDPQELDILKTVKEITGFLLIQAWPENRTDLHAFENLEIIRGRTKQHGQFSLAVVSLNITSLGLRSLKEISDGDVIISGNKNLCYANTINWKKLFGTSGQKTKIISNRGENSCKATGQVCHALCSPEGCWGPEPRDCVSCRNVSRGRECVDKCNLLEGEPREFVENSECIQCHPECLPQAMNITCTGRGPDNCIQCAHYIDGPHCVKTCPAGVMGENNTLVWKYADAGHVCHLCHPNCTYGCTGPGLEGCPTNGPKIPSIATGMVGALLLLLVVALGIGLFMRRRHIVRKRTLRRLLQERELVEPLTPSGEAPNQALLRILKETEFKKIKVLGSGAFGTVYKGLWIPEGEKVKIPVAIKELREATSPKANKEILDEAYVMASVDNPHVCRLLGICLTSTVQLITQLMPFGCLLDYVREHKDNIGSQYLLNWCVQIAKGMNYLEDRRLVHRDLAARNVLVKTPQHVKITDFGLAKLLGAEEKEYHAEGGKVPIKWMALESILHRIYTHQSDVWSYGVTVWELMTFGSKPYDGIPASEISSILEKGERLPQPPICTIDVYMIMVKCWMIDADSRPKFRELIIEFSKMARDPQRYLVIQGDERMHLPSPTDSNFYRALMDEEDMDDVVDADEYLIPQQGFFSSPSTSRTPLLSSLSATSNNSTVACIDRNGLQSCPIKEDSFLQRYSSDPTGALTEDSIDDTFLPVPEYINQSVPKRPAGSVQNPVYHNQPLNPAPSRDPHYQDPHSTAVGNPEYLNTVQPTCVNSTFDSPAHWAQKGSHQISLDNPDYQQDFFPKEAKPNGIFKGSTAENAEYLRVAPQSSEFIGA

CC12CCC3c4ccc(O)cc4CCC3C1CC1=C2NC(=N)NC1c1ccccc1Cl (stereo not shown) [Compound 5a, 2′-Imino-6′-(2-chlorophenyl)-estra-1(10),2,4,16(17)-tetraien-[17,16-d]-pyrimidino-3-ol]
IC50 (EGFR): 0.086 ± 0.0032 µM | decrease in tumor growth (MCF-7 xenografts; after 2 days of treatment, vs control animals): about 25.36% | maximal inhibition of tumor growth (MCF-7 xenografts; after 10 days of treatment): 91.1% | inhibition percentage of tumor growth (MCF-7 xenografts; after 14 days of treatment): 88.7% | IC50 (VEGFR-2): 0.027 ± 0.0012 µM | IC50 (p53 ubiquitination; cells transfected with p53, MDM2, HIS-ubiquitin, exposed 6 h, read-out: IC50 (Mean ± SEM) In Vivo p53 Ubiquitination): 0.22 ± 0.0043 µM | fold more active than standard drug, in vivo p53 ubiquitination (p53 ubiquitination; vs diphenyl imidazole): 8.6 fold | IC50 ([1]; GST-tagged HDM2, p53, ubiquitin, E1 and E2 (UbcH5B), read-out: IC50 (Mean ± SEM) In Vitro p53 Ubiquitination): 16.4 ± 0.23 µM | fold more active than standard drug, in vitro p53 ubiquitination ([1]; vs diphenyl imidazole): 15.8 fold | IC50 (MCF-10A cells): 211 ± 7.53 µM | melting point: 286 to 288 °C | IC50 (MCF-7 cells; Homo sapiens, MCF7, MTT assay, MCF-7 cell line, read-out: IC50 (Mean ± SEM) MCF-7): 18.38 ± 0.13 µM | fold more toxic than the least active compound 7b towards MCF-7 (MCF-7 cells; ratio of IC50 values, 5a vs 7b): 2.5 fold
